Data on 16 compounds can be found in patent US7517884B2 (Kalypsys Inc., priority 1998, dated 2009).

Bounds are passed on as bounds.

What all share (type): cell-based, murine and human
Common to all, as to conditions: GAL4-PPAR LBD chimera

One assay deals with T1, PPAR-alpha (UniProt Q07869).
T1 sequence (Q07869 1-468): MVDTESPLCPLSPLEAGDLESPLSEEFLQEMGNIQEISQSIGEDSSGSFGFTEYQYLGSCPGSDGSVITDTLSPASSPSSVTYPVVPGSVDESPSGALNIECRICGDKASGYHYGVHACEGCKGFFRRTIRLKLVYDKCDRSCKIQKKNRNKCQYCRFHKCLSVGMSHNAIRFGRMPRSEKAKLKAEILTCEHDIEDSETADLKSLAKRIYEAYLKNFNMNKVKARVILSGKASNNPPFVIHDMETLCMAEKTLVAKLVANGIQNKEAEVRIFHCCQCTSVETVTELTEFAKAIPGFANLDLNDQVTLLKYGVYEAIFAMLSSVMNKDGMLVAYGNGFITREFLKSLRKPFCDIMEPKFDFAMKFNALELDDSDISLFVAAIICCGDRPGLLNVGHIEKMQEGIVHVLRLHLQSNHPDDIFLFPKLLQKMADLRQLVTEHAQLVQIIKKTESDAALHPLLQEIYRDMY
Put plainly: PPAR-alpha transactivation assay (GAL4 chimera, luciferase reporter) in CV-1 cells. An excerpt:
(§1) Compounds may be screened for functional potency in transient transfection assays in CV-1 cells for their ability to activate the PPAR subtypes (transactivation assay). A previously established chimeric receptor system was utilized to allow comparison of the relative transcriptional activity of the receptor subtypes on the same synthetic response element and to prevent endogenous receptor activation from complicating the interpretation of results. See, for example, Lehmann, J. M.; Moore, L. B.; Smith-Oliver, T. A; Wilkinson, W. O.; Willson, T. M.; Kliewer, S. A., An antidiabetic thiazolidinedione is a high affinity ligand for peroxisome proliferator-activated receptor […], J. Biol. Chem., 1995, 270, 12953-6. The ligand binding domains for murine and human PPAR-alpha, PPAR-gamma, and PPAR-delta are each fused to the yeast transcription factor GAL4 DNA binding domain. CV-1 cells were transiently transfected with expression vectors for the respective PPAR chimera along with a reporter construct containing four or five copies of the GAL4 DNA binding site driving expression of luciferase. After 8-16 h, the cells are replated into multi-well assay plates and the media is exchanged to phenol-red free DME medium supplemented with 5% delipidated calf serum. 4 hours after replating, cells were treated with either compounds or 1% DMSO for 20-24 hours. Luciferase activity was then assayed with Britelite (Perkin Elmer) following the manufacturer's protocol and measured with either the Perkin Elmer Viewlux or Molecular Devices Acquest (see, for example, Kliewer, S. A., et. al. Cell 1995, 83, 813-819). Rosiglitazone is used as a positive control in the PPARγ assay. Wy-14643 and GW7647 are used as positive controls in the PPARα assay. GW501516 is used as the positive control in the PPARδ assay.
(§2) Compounds of Examples 1-141 were assayed to measure their biological activity with respect to their EC50 values for modulating PPAR-alpha, PPAR-gamma, and PPAR-delta as set forth in Table 1.

Another assay deals with T2, PPAR-delta (UniProt Q03181).
T2 sequence (Q03181 1-441): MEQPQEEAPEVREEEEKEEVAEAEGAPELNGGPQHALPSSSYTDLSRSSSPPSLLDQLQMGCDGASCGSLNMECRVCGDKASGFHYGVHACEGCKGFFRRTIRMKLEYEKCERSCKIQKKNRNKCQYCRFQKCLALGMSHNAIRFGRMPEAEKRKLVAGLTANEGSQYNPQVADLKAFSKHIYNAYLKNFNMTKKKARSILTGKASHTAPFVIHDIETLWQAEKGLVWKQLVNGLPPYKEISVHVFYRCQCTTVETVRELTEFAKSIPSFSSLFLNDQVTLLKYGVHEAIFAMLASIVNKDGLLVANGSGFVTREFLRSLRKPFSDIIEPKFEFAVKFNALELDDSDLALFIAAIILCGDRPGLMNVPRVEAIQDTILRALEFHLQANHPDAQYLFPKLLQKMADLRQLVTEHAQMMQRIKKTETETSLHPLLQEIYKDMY
Put plainly: PPAR-delta transactivation assay (GAL4 chimera, luciferase reporter) in CV-1 cells.
Source text: as §1, §2

A further assay concerns the target T3, PPAR-gamma (UniProt P37231).
T3 sequence (P37231 1-505): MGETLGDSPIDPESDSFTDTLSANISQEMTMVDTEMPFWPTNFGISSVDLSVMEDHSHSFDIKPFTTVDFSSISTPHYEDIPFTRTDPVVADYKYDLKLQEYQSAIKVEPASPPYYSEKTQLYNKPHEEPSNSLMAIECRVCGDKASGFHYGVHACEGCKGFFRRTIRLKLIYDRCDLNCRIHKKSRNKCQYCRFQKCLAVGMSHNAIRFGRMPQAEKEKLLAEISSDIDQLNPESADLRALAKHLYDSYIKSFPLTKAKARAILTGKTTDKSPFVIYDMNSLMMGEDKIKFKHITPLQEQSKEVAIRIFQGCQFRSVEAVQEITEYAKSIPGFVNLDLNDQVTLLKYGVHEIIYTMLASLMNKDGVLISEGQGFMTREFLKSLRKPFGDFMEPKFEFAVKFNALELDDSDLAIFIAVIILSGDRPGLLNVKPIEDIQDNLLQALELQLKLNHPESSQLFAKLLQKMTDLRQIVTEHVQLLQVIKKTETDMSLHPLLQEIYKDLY
Briefly: PPAR-gamma transactivation assay (GAL4 chimera, luciferase reporter) in CV-1 cells.
Source text: as §1, §2

Turning to `C[C@@H]1CN(c2ccc(C(F)(F)F)c(Cl)c2)C[C@H](C)N1S(=O)(=O)c1cccc2c1CC(C(=O)O)C2` (relative stereo) [Example 82, 4-[4-(3-chloro-4-trifluoromethyl-phenyl)-cis-2,6-dimethyl-piperazine-1-sulfonyl]-indan-2-carboxylic acid], the values for the EC50 at PPAR-alpha, at PPAR-delta and on PPAR-gamma were > 100 µM, < 5 µM and > 100 µM, respectively.

In the case of `O=C(O)C1Cc2cccc(S(=O)(=O)N3CCN(c4ccc(C(F)(F)F)cn4)CC3)c2C1` (single isomer, unassigned) [Example 11], the concentration giving a half-maximal response (EC50) at PPAR-alpha is 5 to 100 µM; at PPAR-delta, < 5 µM; on PPAR-gamma, < 5 µM.

`C[C@@H]1CN(c2ccc(C(F)(F)F)cn2)C[C@H](C)N1S(=O)(=O)c1ccc2c(c1)C(C(=O)O)CC2` (single isomer, unassigned) [Example 75, 6-[cis-2,6-dimethyl-4-(5-trifluoromethylpyridin-2-yl)-piperazine-1-sulfonyl]-indan-1-carboxylic acid]: the results for the concentration for a half-maximal effect (EC50) on PPAR-alpha, at PPAR-delta and at PPAR-gamma were 5 to 100 µM, < 5 µM and 5 to 100 µM, respectively.

Take `C[C@@H]1CN(c2ccc(C(F)(F)F)cn2)C[C@H](C)N1S(=O)(=O)c1ccc2c(c1)C(C(=O)O)CC2` (single isomer, unassigned) [Example 76, 6-[cis-2,6-dimethyl-4-(5-trifluoromethylpyridin-2-yl)-piperazine-1-sulfonyl]-indan-1-carboxylic acid]: the EC50 on PPAR-alpha is > 100 µM; at PPAR-delta it was < 5 µM; on PPAR-gamma it was > 100 µM.

With `C[C@@H]1CN(c2ccc(OC(F)(F)F)cc2)C[C@H](C)N1S(=O)(=O)c1cccc2c1CC(C(=O)O)C2` (single isomer, unassigned) [Example 80], the concentration giving a half-maximal response (EC50) is > 100 µM at PPAR-alpha, < 5 µM on PPAR-delta and > 100 µM at PPAR-gamma.

With `CC1CN(S(=O)(=O)c2cccc3c2CC(C(=O)O)C3)C(C)CN1c1ccc(C(F)(F)F)cn1` (single isomer, unassigned) [Example 118, 4-[2S,5S-dimethyl-4-(5-trifluoromethyl-pyridin-2-yl)-piperazine-1-sulfonyl]-indan-2-carboxylic acid], the EC50 is > 100 µM at PPAR-alpha, < 5 µM on PPAR-delta and 5 to 100 µM on PPAR-gamma.

Regarding `CC1CN(S(=O)(=O)c2cccc3c2CC(C(=O)O)C3)C(C)CN1c1ccc(C(F)(F)F)cn1` (single isomer, unassigned) [Example 119, 4-[2S,5S-dimethyl-4-(5-trifluoromethyl-pyridin-2-yl)-piperazine-1-sulfonyl]-indan-2-carboxylic acid], the EC50 is > 100 µM on PPAR-alpha, 5 to 100 µM on PPAR-delta and > 100 µM on PPAR-gamma.

Consider `C[C@@H]1CN(c2ccc(Cl)cc2)C[C@H](C)N1S(=O)(=O)c1cccc2c1CC(C(=O)O)C2` (single isomer, unassigned) [Example 127, 4-(4-(4-chlorophenyl)-cis-2,6-dimethylpiperazin-1-ylsulfonyl)-2,3-dihydro-1H-indene-2-carboxylic acid], for which the half-maximal effective concentration (EC50) was > 100 µM on PPAR-alpha, < 5 µM at PPAR-delta and > 100 µM on PPAR-gamma.

Take `C[C@@H]1CN(c2ccc(Cl)cc2)C[C@H](C)N1S(=O)(=O)c1cccc2c1CC(C(=O)O)C2` (single isomer, unassigned) [Example 128, 4-(4-(4-chlorophenyl)-cis-2,6-dimethylpiperazin-1-ylsulfonyl)-2,3-dihydro-1H-indene-2-carboxylic acid]: the EC50 on PPAR-alpha was > 100 µM; on PPAR-delta, 5 to 100 µM; on PPAR-gamma, > 100 µM.

On to `C[C@@H]1CN(c2cccc(OC(F)(F)F)c2)C[C@H](C)N1S(=O)(=O)c1cccc2c1CC(C(=O)O)C2` (single isomer, unassigned) [Example 129, 4-[cis-2,6-dimethyl-4-(3-trifluoromethoxyphenyl)piperazin-1-ylsulfonyl]-2,3-dihydro-1H-indene-2-carboxylic acid], for which the EC50 is > 100 µM at PPAR-alpha, < 5 µM on PPAR-delta and > 100 µM on PPAR-gamma.

On to `C[C@@H]1CN(c2cccc(OC(F)(F)F)c2)C[C@H](C)N1S(=O)(=O)c1cccc2c1CC(C(=O)O)C2` (single isomer, unassigned) [Example 130, 4-[cis-2,6-dimethyl-4-(3-trifluoromethoxyphenyl)piperazin-1-ylsulfonyl]-2,3-dihydro-1H-indene-2-carboxylic acid], for which the EC50 at PPAR-alpha was > 100 µM; at PPAR-delta it was 5 to 100 µM; on PPAR-gamma it was > 100 µM.

For `C[C@@H]1CN(c2ccc(C(F)(F)F)c(Cl)c2)C[C@H](C)N1S(=O)(=O)c1cccc2c1CC(C(=O)O)C2` (single isomer, unassigned) [Example 138, 4-(4-(3-chloro-4-(trifluoromethyl)phenyl)-cis-2,6-dimethylpiperazin-1-ylsulfonyl)-2,3-dihydro-1H-indene-2-carboxylic acid], the results for the EC50 at PPAR-alpha, on PPAR-delta and on PPAR-gamma were > 100 µM, < 5 µM and > 100 µM, respectively.

With `C[C@@H]1CN(c2ccc(C(F)(F)F)c(Cl)c2)C[C@H](C)N1S(=O)(=O)c1cccc2c1CC(C(=O)O)C2` (single isomer, unassigned) [Example 139, 4-(4-(3-chloro-4-(trifluoromethyl)phenyl)-cis-2,6-dimethylpiperazin-1-ylsulfonyl)-2,3-dihydro-1H-indene-2-carboxylic acid], the half-maximal effective concentration (EC50) on PPAR-alpha was > 100 µM; at PPAR-delta, 5 to 100 µM; on PPAR-gamma, > 100 µM.

With `C[C@@H]1CN(Cc2ccc(OC(F)(F)F)cc2)C[C@H](C)N1S(=O)(=O)c1cccc2c1CC(C(=O)O)C2` (single isomer, unassigned) [Example 140], the EC50 is > 100 µM at PPAR-alpha, < 5 µM at PPAR-delta and 5 to 100 µM at PPAR-gamma.

In the case of `C[C@@H]1CN(Cc2ccc(OC(F)(F)F)cc2)C[C@H](C)N1S(=O)(=O)c1cccc2c1CC(C(=O)O)C2` (single isomer, unassigned) [Example 141], the 50% effective concentration (EC50) at PPAR-alpha was > 100 µM; at PPAR-delta, 5 to 100 µM; on PPAR-gamma, > 100 µM.

On to `C[C@@H]1[C@H](C)N(c2ccc(C(F)(F)F)cn2)CCN1S(=O)(=O)c1ccc2c(c1)C(C(=O)O)CC2` (stereo in doubt) [Example 86, 6-[2,3-Dimethyl-4-(5-trifluoromethyl-pyridin-2-yl)-piperazine-1-sulfonyl]-indan-1-carboxylic acid], for which the concentration for a half-maximal effect (EC50) at PPAR-alpha, on PPAR-delta and at PPAR-gamma was < 5 µM each time.
